Laboratory results reported in patent US5432200A, “Method for increasing urinary excretion of electrolytes” (priority 1993, dated 1995).
Structures can show the parent of a compound that is named as a salt.

Assays:
[1] = Physiological effects: urinary composition in two patients, five phases of study (Example 8, Table 1); assay type: in vivo, human (patients); conditions: for Urinary Ca / Urinary pH / Urinary Oxalate / Urinary K / Urinary Mg / Urinary Na / Urinary Citrate: mean of two patients, tablets/d: KCl 7, K citrate 10, Mg citrate 2.5, K-Mg citrate 7; for Urinary pH: placebo 6.26; for Urinary Oxalate: placebo 27; for Urinary K: placebo 31; for Urinary Mg: placebo 64; for Urinary Na: placebo 95; for Urinary Citrate: placebo 498
[2] = cited from earlier work
[3] = Bioavailability of potassium, magnesium and citrate in normal subjects: cumulative increment in urinary excretion after single oral dose (Example 7); conditions: urine 24 hours
Protocol: (§1) The study was performed with three normal subjects.
(§2) The subject underwent three phases of study. […] Urine was collected at frequent intervals for 24 hours after oral ingestion of each salt (at 8 a.m.).
(§3) Potassium bioavailability from potassium magnesium citrate was compared with that of potassium citrate. At each time period, the difference in urinary potassium following ingestion of potassium magnesium citrate (containing 49 meq potassium) or potassium citrate (containing 50 meq potassium) from that obtained at a corresponding time period following taking magnesium citrate (no potassium; therefore serving as control).
(§4) Magnesium bioavailability from potassium magnesium citrate was compared with that of magnesium citrate.
(§5) Citrate bioavailability from potassium magnesium citrate was compared with that of potassium citrate and magnesium citrate.

[4] = in vivo; cited from earlier work
[5] = system: hypercalciuric nephrolithiasis; conditions: cited from earlier work
[6] = human, in vivo, po
Protocol: as §1, §2, §3, §4, §5

nephrolithiasis = conditions: cited from earlier work
[7] = hypercalciuric patients with nephrolithiasis treated with thiazide

Compound: O=C(O)CC(O)(CC(=O)O)C(=O)O [magnesium citrate]
- Urinary Ca ([1]; listed as Magnesium Citrate): 137 mg/day
- Urinary pH ([1]; listed as Magnesium Citrate): 6.13
- Urinary Oxalate ([1]; listed as Magnesium Citrate): 23 mg/day
- Urinary K ([1]; listed as Magnesium Citrate): 38 meq/d
- Urinary Mg ([1]; listed as Magnesium Citrate): 113 mg/day
- Urinary Na ([1]; listed as Magnesium Citrate): 82 meq/d
- Urinary Citrate ([1]; listed as Magnesium Citrate): 718 mg/day
- magnesiuric and citraturic effect compared with magnesium oxide ([2]; magnesium salts provided in small divided doses): equivalent magnesiuric and citraturic effect as magnesium oxide
- absorbability compared with magnesium oxide ([2]; vs magnesium oxide): more soluble and absorbable than magnesium oxide
- cumulative increment in urinary magnesium (magnesium bioavailability or absorption) ([3]; 24.5 meq Mg (potassium magnesium citrate) vs 25 meq Mg (magnesium citrate), potassium citrate phase as control, FIG. 3): equivalent magnesium bioavailability between the two preparations

Compound: [Cl-].[K+] [potassium chloride]
- Urinary Ca [1]: 103 mg/day
- Urinary pH [1]: 5.84
- Urinary Oxalate [1]: 27 mg/day
- Urinary K [1]: 90 meq/d
- Urinary Mg [1]: 73 mg/day
- Urinary Na [1]: 81 meq/d
- Urinary Citrate [1]: 636 mg/day
- side effects [4]: arrhythmia and diarrhea

Compound: O=C(O)CC(O)(CC(=O)O)C(=O)O [potassium citrate]
- Urinary Ca ([1]; listed as Potassium Citrate): 86 mg/day
- Urinary pH ([1]; listed as Potassium Citrate): 6.93
- Urinary Oxalate ([1]; listed as Potassium Citrate): 27 mg/day
- Urinary K ([1]; listed as Potassium Citrate): 80 meq/d
- Urinary Mg ([1]; listed as Potassium Citrate): 69 mg/day
- Urinary Na ([1]; listed as Potassium Citrate): 91 meq/d
- Urinary Citrate ([1]; listed as Potassium Citrate): 821 mg/day
- citrate excretion [5, 7]: augments citrate excretion
- effect on thiazide-induced hypokalemia [5, 7]: averts the development of hypokalemia
- recurrent stone formation ([5]; patients who have relapsed on thiazide therapy): prevents recurrent stone formation
- effect on thiazide-induced magnesium depletion ([5]; potassium citrate therapy): does not avert thiazide-induced magnesium depletion
- cumulative increment in urinary potassium (potassium bioavailability) ([3]; 49 meq K (potassium magnesium citrate) vs 50 meq K (potassium citrate), magnesium citrate phase as control, FIG. 2): equivalent between the two preparations

Compound: O=C([O-])CC(O)(CC(=O)[O-])C(=O)[O-].O=C([O-])CC(O)(CC(=O)[O-])C(=O)[O-].[K+].[K+].[K+].[K+].[Mg+2] [potassium magnesium citrate, tetrapotassium monomagnesium dicitrate]
- Urinary Ca [1]: 106 mg/day
- Urinary pH [1]: 6.94
- Urinary Oxalate [1]: 23 mg/day
- Urinary K [1]: 73 meq/d
- Urinary Mg [1]: 116 mg/day
- Urinary Na [1]: 92 meq/d
- Urinary Citrate [1]: 968 mg/day
- urinary pH and citrate compared to magnesium citrate ([1]; vs magnesium citrate): higher values for urinary pH and citrate
- urinary calcium and oxalate compared to placebo ([1]; vs placebo): lower values for urinary calcium and oxalate
- urinary pH, magnesium, potassium and citrate compared to placebo ([1]; vs placebo): higher values for urinary pH, magnesium, potassium and citrate
- urinary pH, magnesium and citrate compared to potassium chloride ([1]; vs potassium chloride): higher urinary pH, magnesium, and citrate
- citrate and magnesium excretion compared to potassium citrate ([1]; vs potassium citrate): greater citrate excretion as well as enhanced magnesium excretion
- cumulative increment in urinary citrate (citrate bioavailability) [6]: much higher for potassium magnesium citrate than for the other two preparations

Compound: NS(=O)(=O)c1cc2c(cc1Cl)NCNS2(=O)=O [thiazide]
- potassium and magnesium depletion (nephrolithiasis; thiazide therapy, by provoking renal loss of potassium and magnesium): may cause hypokalemia and magnesium depletion
- relapse rate (nephrolithiasis; use of thiazide alone): 37.5-57.1%
